Test results from patent US7858788B2, “Bicyclic carbamoylpyridone derivative having HIV integrase inhibitory activity” (Shionogi & Co., Ltd., priority 2005, dated 2010).

Biological target: HIV integrase (Human immunodeficiency virus type 1 group M subtype B, UniProt P04585)
Assay: HIV integrase inhibitory activity assay (immunoplate, substrate DNA / target DNA, OD405)
Type: biochemical
Conditions: read-out: Integrase inhibitory activity (IC50, ng/ml) (converted)
Procedure: The HIV integrase inhibitory activity was investigated based on the following assay method.
(1) Preparation of DNA Solution
By the same method as that described in Experimental Example 1 of WO 2004/024693, a substrate DNA solution (2 pmol/ml) and a target DNA solution (5 pmol/ml) were prepared. […] Each sequence of a substrate DNA and a target DNA is as described in the same Experimental Example.
(2) Measurement of Inhibition Rate (IC50 Value)
Streptavidin (manufactured by Vector Laboratories) was dissolved in a 0.1M carbonate buffer solution (composition: 90 mM Na2CO3, 10 mM NaHCO3) to a concentration of 40 μg/ml. Each […] of this solution was added to a well of an immunoplate (manufactured by NUNC), and this is allowed to stand at 4° C. overnight to adsorb. Then, each well was washed with a phosphate buffer (composition: 13.7 mM NaCl, 0.27 mM KCl, 0.43 mM Na2HPO4, 0.14 mM KH2PO4) two times, and […] of a phosphate buffer containing 1% skim milk was added to block it for 30 minutes. Further, each well was washed with a phosphate buffer two times, […] of a substrate DNA solution (2 pmol/ml) was added to adsorb at room temperature for 30 minutes while shaking, and this was washed with a phosphate buffer two times and, then, distilled water once.
Then, to each well prepared as described above were added 12 ml of a buffer (composition: 150 mM MOPS (pH7.2), 75 mM MnCl2, 50 mM 2-mercaptoethanol, 25% glycerol, 500 μg/ml bovine serum albumin-fraction V), and 51 ml of a reaction solution prepared from […] of distilled water. Then, 9 ml of an integrase solution (30 pmol) was added, and the mixture was mixed well. To a well as a negative control (NC) was added 9 ml of a diluting solution (composition: 20 mM MOPS (pH7.2), 400 mM potassium glutamete, 1 mM EDTA, 0.1% NP-40, 20% glycerol, 1 mM DTT, 4 M urea), and this was mixed well using a plate mixer. […]
C abs.; absorbance of well of compound
NC abs.: absorbance of NC
PC abs.: absorbance of PC

SMILES	IC50 [nM]
O=C(NCc1ccc(F)cc1)c1cn2ccn(Cc3ccc(F)cc3)c(=O)c2c(O)c1=O [Example A-30, 2-(4-Fluorobenzyl)-9-hydroxy-1,8-dioxo-1,8-dihydro-2H-pyrid[1,2-a]pyrazine-7-carboxylic acid 4-fluoro-benzylamide]	2.29
COCCN1CC(O)n2cc(C(=O)NCc3ccc(F)cc3)c(=O)c(O)c2C1=O [Example D-41, 4,9-Dihydroxy-2-(2-methoxy-ethyl)-1,8-dioxo-1,3,4,8-tetrahydro-2H-pyrid[1,2-a]pyrazine-7-carboxylic acid 4-fluoro-benzylamide]	7.89
COCCN1C(=O)c2c(O)c(=O)c(C(=O)NCc3ccc(F)cc3COC)cn2CC1O (stereo not drawn) [Example E-1, 3,9-Dihydroxy-2-(2-methoxy-ethyl)-1,8-dioxo-1,3,4,8-tetrahydro-2H-pyrid[1,2-a]pyrazine-7-carboxylic acid 4-fluoro-2-methoxymethyl-benzylamide]	11.1
